Measured values from ChEMBL document CHEMBL3885861, “Open TG-GATES”.

Organism: Rattus norvegicus
Assay: Open TG-GATES - Regimen: Single
Type: toxicity, organism-based, Sprague-Dawley
Set-up: regimen Single, gender Male, age 6 weeks
Details: in vivo, po, route gavage; for KIDNEY_L / KIDNEY_R / KIDNEY_TOTAL: tissue Kidney; for LIVER: tissue Liver; for ALT / AST / BUN / CRE / DBIL / GLC / IP / K / PL / RALB / TBIL / TC / TG / TP / gamma-GTP / ALP: tissue Plasma
[1] = 0 mg/kg, 3 h, tissue Blood, dose level Control
[2] = 0 mg/kg, 3 h, dose level Control
[3] = 0 mg/kg, 6 h, tissue Blood, dose level Control
[4] = 0 mg/kg, 6 h, dose level Control
[5] = 0 mg/kg, 9 h, tissue Blood, dose level Control
[6] = 0 mg/kg, 9 h, dose level Control
[7] = 0 mg/kg, 24 h, tissue Blood, dose level Control
[8] = 0 mg/kg, 24 h, dose level Control
[9] = 10 mg/kg, 3 h, tissue Blood, dose level Low
[10] = 10 mg/kg, 6 h, tissue Blood, dose level Low
[11] = 10 mg/kg, 9 h, tissue Blood, dose level Low
[12] = 10 mg/kg, 24 h, tissue Blood, dose level Low

CC(C)OC(=O)C(C)(C)Oc1ccc(C(=O)c2ccc(Cl)cc2)cc1 [FENOFIBRATE]
Bas [1]: 0.4% | Eos [1]: 0.8% | Fbg [1]: 289.4 mg/dL | Ht [1]: 39.8% | MCHC [1]: 32.5% | Mono [1]: 4% | RBC [1]: 616.8 x10_4/ul | Ret [1]: 9% | KIDNEY_L [2]: 0.8 g | KIDNEY_R [2]: 0.8 g | KIDNEY_TOTAL [2]: 1.5 g | LIVER [2]: 7.9 g | ALT [2]: 48.4 IU/L | AST [2]: 83 IU/L | BUN [2]: 9 mg/dL | CRE [2]: 0.2 mg/dL | DBIL [2]: 0.006 mg/dL | GLC [2]: 182.6 mg/dL | IP [2]: 9.5 mg/dL | K [2]: 4.3 meq/L | PL [2]: 140.8 mg/dL | RALB [2]: 2.4 g/dL | TBIL [2]: 0.048 mg/dL | TC [2]: 77 mg/dL | TG [2]: 41.2 mg/dL | TP [2]: 5.2 g/dL | gamma-GTP [2]: 1.4 IU/L | Bas [3]: 0.4% | Eos [3]: 0.8% | Fbg [3]: 268.2 mg/dL | Ht [3]: 40.1% | MCHC [3]: 32.4% | Mono [3]: 3% | RBC [3]: 599.2 x10_4/ul | Ret [3]: 9.6% | KIDNEY_L [4]: 0.8 g | KIDNEY_R [4]: 0.8 g | KIDNEY_TOTAL [4]: 1.5 g | LIVER [4]: 7.2 g | ALP [4]: 1534.8 IU/L | ALT [4]: 41.8 IU/L | AST [4]: 81.8 IU/L | BUN [4]: 9.6 mg/dL | CRE [4]: 0.2 mg/dL | DBIL [4]: 0.008 mg/dL | GLC [4]: 173.8 mg/dL | IP [4]: 9.7 mg/dL | K [4]: 4.1 meq/L | PL [4]: 142.6 mg/dL | RALB [4]: 2.5 g/dL | TBIL [4]: 0.056 mg/dL | TC [4]: 82.4 mg/dL | TG [4]: 44.6 mg/dL | TP [4]: 5.4 g/dL | gamma-GTP [4]: 1 IU/L | Bas [5]: 0% | Eos [5]: 1% | Fbg [5]: 292.6 mg/dL | Ht [5]: 39.3% | MCHC [5]: 32.3% | Mono [5]: 2.4% | RBC [5]: 584.2 x10_4/ul | Ret [5]: 9.6% | KIDNEY_L [6]: 0.8 g | KIDNEY_R [6]: 0.8 g | KIDNEY_TOTAL [6]: 1.5 g | LIVER [6]: 6.9 g | ALP [6]: 1454.2 IU/L | ALT [6]: 38.6 IU/L | AST [6]: 75.8 IU/L | BUN [6]: 8.4 mg/dL | CRE [6]: 0.2 mg/dL | DBIL [6]: 0.008 mg/dL | GLC [6]: 178.8 mg/dL | IP [6]: 9.5 mg/dL | K [6]: 4 meq/L | PL [6]: 145.8 mg/dL | RALB [6]: 2.4 g/dL | TBIL [6]: 0.058 mg/dL | TC [6]: 83.2 mg/dL | TG [6]: 38.6 mg/dL | TP [6]: 5.2 g/dL | gamma-GTP [6]: 1 IU/L | Bas [7]: 0.2% | Eos [7]: 1% | Fbg [7]: 281.4 mg/dL | Ht [7]: 39.1% | MCHC [7]: 32.7% | Mono [7]: 3% | RBC [7]: 590.8 x10_4/ul | Ret [7]: 9.3% | KIDNEY_L [8]: 0.9 g | KIDNEY_R [8]: 0.8 g | KIDNEY_TOTAL [8]: 1.7 g | LIVER [8]: 9.1 g | ALT [8]: 50.4 IU/L | AST [8]: 77.6 IU/L | CRE [8]: 0.2 mg/dL | DBIL [8]: 0.012 mg/dL | GLC [8]: 186.2 mg/dL | IP [8]: 8.5 mg/dL | K [8]: 4.4 meq/L | PL [8]: 153.6 mg/dL | RALB [8]: 2.6 g/dL | TBIL [8]: 0.04 mg/dL | TC [8]: 82.8 mg/dL | TG [8]: 65 mg/dL | TP [8]: 5.6 g/dL | gamma-GTP [8]: 0.8 IU/L | Bas [9]: 0.2% | Eos [9]: 0.6% | Fbg [9]: 280.8 mg/dL | Ht [9]: 40.3% | MCHC [9]: 32.3% | Mono [9]: 3.6% | RBC [9]: 603 x10_4/ul | Ret [9]: 10.2% | KIDNEY_L (10 mg/kg, 3 h, dose level Low): 0.8 g | KIDNEY_R (10 mg/kg, 3 h, dose level Low): 0.8 g | KIDNEY_TOTAL (10 mg/kg, 3 h, dose level Low): 1.6 g | LIVER (10 mg/kg, 3 h, dose level Low): 7.8 g | ALP (10 mg/kg, 3 h, dose level Low): 1472.8 IU/L | ALT (10 mg/kg, 3 h, dose level Low): 49.4 IU/L | AST (10 mg/kg, 3 h, dose level Low): 83.6 IU/L | BUN (10 mg/kg, 3 h, dose level Low): 9.8 mg/dL | CRE (10 mg/kg, 3 h, dose level Low): 0.2 mg/dL | DBIL (10 mg/kg, 3 h, dose level Low): 0.01 mg/dL | GLC (10 mg/kg, 3 h, dose level Low): 178.4 mg/dL | IP (10 mg/kg, 3 h, dose level Low): 10 mg/dL | K (10 mg/kg, 3 h, dose level Low): 4.2 meq/L | PL (10 mg/kg, 3 h, dose level Low): 140.8 mg/dL | RALB (10 mg/kg, 3 h, dose level Low): 2.4 g/dL | TBIL (10 mg/kg, 3 h, dose level Low): 0.058 mg/dL | TC (10 mg/kg, 3 h, dose level Low): 80.4 mg/dL | TG (10 mg/kg, 3 h, dose level Low): 43 mg/dL | TP (10 mg/kg, 3 h, dose level Low): 5.2 g/dL | gamma-GTP (10 mg/kg, 3 h, dose level Low): 1.4 IU/L | Bas [10]: 0% | Eos [10]: 0.8% | Fbg [10]: 283 mg/dL | Ht [10]: 39.7% | Lym [10]: 69.4% | MCHC [10]: 32% | Mono [10]: 2.6% | RBC [10]: 572.6 x10_4/ul | Ret [10]: 11.1% | KIDNEY_L (10 mg/kg, 6 h, dose level Low): 0.8 g | KIDNEY_R (10 mg/kg, 6 h, dose level Low): 0.8 g | KIDNEY_TOTAL (10 mg/kg, 6 h, dose level Low): 1.6 g | LIVER (10 mg/kg, 6 h, dose level Low): 7.8 g | ALP (10 mg/kg, 6 h, dose level Low): 1504.8 IU/L | ALT (10 mg/kg, 6 h, dose level Low): 43.4 IU/L | AST (10 mg/kg, 6 h, dose level Low): 77.2 IU/L | BUN (10 mg/kg, 6 h, dose level Low): 8.8 mg/dL | CRE (10 mg/kg, 6 h, dose level Low): 0.2 mg/dL | DBIL (10 mg/kg, 6 h, dose level Low): 0.01 mg/dL | GLC (10 mg/kg, 6 h, dose level Low): 180.2 mg/dL | IP (10 mg/kg, 6 h, dose level Low): 10.2 mg/dL | K (10 mg/kg, 6 h, dose level Low): 4.2 meq/L | PL (10 mg/kg, 6 h, dose level Low): 128 mg/dL | RALB (10 mg/kg, 6 h, dose level Low): 2.5 g/dL | TBIL (10 mg/kg, 6 h, dose level Low): 0.056 mg/dL | TC (10 mg/kg, 6 h, dose level Low): 71.6 mg/dL | TG (10 mg/kg, 6 h, dose level Low): 36.8 mg/dL | TP (10 mg/kg, 6 h, dose level Low): 5.4 g/dL | gamma-GTP (10 mg/kg, 6 h, dose level Low): 1.4 IU/L | Bas [11]: 0% | Eos [11]: 1% | Fbg [11]: 283 mg/dL | Ht [11]: 39.6% | MCHC [11]: 32.4% | Mono [11]: 1.4% | RBC [11]: 608.4 x10_4/ul | Ret [11]: 9.5% | KIDNEY_L (10 mg/kg, 9 h, dose level Low): 0.8 g | KIDNEY_R (10 mg/kg, 9 h, dose level Low): 0.8 g | KIDNEY_TOTAL (10 mg/kg, 9 h, dose level Low): 1.6 g | LIVER (10 mg/kg, 9 h, dose level Low): 7 g | ALP (10 mg/kg, 9 h, dose level Low): 1360.4 IU/L | ALT (10 mg/kg, 9 h, dose level Low): 42.4 IU/L | AST (10 mg/kg, 9 h, dose level Low): 77.4 IU/L | BUN (10 mg/kg, 9 h, dose level Low): 7.4 mg/dL | CRE (10 mg/kg, 9 h, dose level Low): 0.1 mg/dL | DBIL (10 mg/kg, 9 h, dose level Low): 0.01 mg/dL | GLC (10 mg/kg, 9 h, dose level Low): 175.2 mg/dL | IP (10 mg/kg, 9 h, dose level Low): 9.8 mg/dL | K (10 mg/kg, 9 h, dose level Low): 3.9 meq/L | PL (10 mg/kg, 9 h, dose level Low): 124 mg/dL | RALB (10 mg/kg, 9 h, dose level Low): 2.4 g/dL | TBIL (10 mg/kg, 9 h, dose level Low): 0.054 mg/dL | TC (10 mg/kg, 9 h, dose level Low): 70.8 mg/dL | TG (10 mg/kg, 9 h, dose level Low): 31.2 mg/dL | TP (10 mg/kg, 9 h, dose level Low): 5.2 g/dL | gamma-GTP (10 mg/kg, 9 h, dose level Low): 0.8 IU/L | Bas [12]: 0% | Eos [12]: 1% | Fbg [12]: 270 mg/dL | Ht [12]: 38.6% | MCHC [12]: 32.4% | Mono [12]: 3.8% | RBC [12]: 590.4 x10_4/ul | Ret [12]: 8.6% | KIDNEY_L (10 mg/kg, 24 h, dose level Low): 0.8 g | KIDNEY_R (10 mg/kg, 24 h, dose level Low): 0.8 g | KIDNEY_TOTAL (10 mg/kg, 24 h, dose level Low): 1.6 g | LIVER (10 mg/kg, 24 h, dose level Low): 9.2 g | ALP (10 mg/kg, 24 h, dose level Low): 1838.8 IU/L | ALT (10 mg/kg, 24 h, dose level Low): 49.2 IU/L | AST (10 mg/kg, 24 h, dose level Low): 76.8 IU/L | BUN (10 mg/kg, 24 h, dose level Low): 14.2 mg/dL | CRE (10 mg/kg, 24 h, dose level Low): 0.2 mg/dL | DBIL (10 mg/kg, 24 h, dose level Low): 0.012 mg/dL | GLC (10 mg/kg, 24 h, dose level Low): 179.6 mg/dL | IP (10 mg/kg, 24 h, dose level Low): 8.6 mg/dL | K (10 mg/kg, 24 h, dose level Low): 4.3 meq/L | PL (10 mg/kg, 24 h, dose level Low): 133.2 mg/dL | RALB (10 mg/kg, 24 h, dose level Low): 2.6 g/dL | TBIL (10 mg/kg, 24 h, dose level Low): 0.04 mg/dL | TC (10 mg/kg, 24 h, dose level Low): 68.8 mg/dL | TG (10 mg/kg, 24 h, dose level Low): 54 mg/dL | TP (10 mg/kg, 24 h, dose level Low): 5.4 g/dL | gamma-GTP (10 mg/kg, 24 h, dose level Low): 1.2 IU/L
